In patent EP4656640A1, “IRAK4 DEGRADER AND USE THEREOF” (Shanghai Qilu Pharmaceutical Research and Development …, priority 2023, dated 2024) one finds DC50 data, which are given here for 27 compounds.

The target of test [1] is T1, IRAK4 (Homo sapiens, UniProt Q9NWZ3).
T1 sequence (Q9NWZ3 1-460): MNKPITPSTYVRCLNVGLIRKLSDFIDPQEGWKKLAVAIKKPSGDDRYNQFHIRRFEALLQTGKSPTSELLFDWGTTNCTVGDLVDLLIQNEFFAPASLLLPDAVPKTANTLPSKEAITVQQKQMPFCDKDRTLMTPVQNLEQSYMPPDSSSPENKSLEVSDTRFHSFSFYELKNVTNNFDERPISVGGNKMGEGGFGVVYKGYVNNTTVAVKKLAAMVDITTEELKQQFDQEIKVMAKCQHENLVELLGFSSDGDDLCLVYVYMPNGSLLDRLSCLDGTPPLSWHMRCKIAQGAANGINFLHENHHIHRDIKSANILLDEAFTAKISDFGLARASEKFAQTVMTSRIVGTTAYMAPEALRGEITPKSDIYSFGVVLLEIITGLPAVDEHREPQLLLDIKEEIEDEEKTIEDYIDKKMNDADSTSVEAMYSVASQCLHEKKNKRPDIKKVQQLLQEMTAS
The experiment in a line: Degradation of IRAK4 in SU-DHL-2 cells (flow cytometry). In kind it is cell-based. On the set-up: The degradation level of IRAK4 protein in SU-DHL-2 cell line by the compounds was detected by flow cytometry; endogenous in cells; host or cells: SU-DHL-2; OCI-LY3. The procedure: The degradation level of IRAK4 protein in SU-DHL-2 cell line by the compounds was detected by flow cytometry.
Step 2: On day 1, the cells were seeded at a density of 2 × 10^5 cells per well in 100 µL in a 96-well plate. The compounds were dissolved in DMSO to a final concentration of 10 mM, and then diluted with culture medium at a 1:5 concentration gradient to prepare 10 concentrations. The diluted solutions were added to the cells to obtain a maximum final concentration of 2 µM. Wells containing cells treated with 0.1% DMSO served as the […] The cells were incubated at 37°C in a 5% CO2 incubator for 24 hours.
Step 3: After centrifugation, the cells were washed with FACS buffer. The cells were stained for viability discrimination using the LIVE/DEAD™ Fixable Blue Dead Cell Stain Kit, and surface staining of monocytes was performed with PE Mouse Anti-Human CD14, followed by incubation at 4°C for 30 minutes.
Step 4: After centrifugation, the cells were washed with FACS buffer. Fix buffer I, equal in volume to the cultured cells, was added, and the cells were fixed at 37°C for 10 minutes.
Step 5: After centrifugation, the cells were washed with FACS buffer. 150 µL of Perm III reagent was added, and the cells were incubated at 4°C for 30 minutes to permeabilize the membranes. After centrifugation, the cells were washed with FACS buffer.
Flow cytometry analysis was performed using a flow cytometer.
The flow cytometry data were analyzed using Flowjo software. Data presentation and DC50 (half-maximal degradation concentration) calculation were performed using Prism 8.0.2 (GraphPad).

Test [2] concerns the target T1, IRAK4. The class given is cell-based. On the set-up: endogenous in cells; host or cells: OCI-LY3. To be noted: read-out: OCI-LY3 DC50.
The mark [3] stands for this setting: SU-DHL-2 cells, 24 hours incubation; read-out: SU-DHL-2 DC50.
Setting [4] is: read-out: SU-DHL-2 DC50; SU-DHL-2 cells, 24 hours incubation.

Read-outs that look alike come from different tables or passages of the source.

For the compound `Cn1c(=O)n(C2CCC(=O)NC2=O)c2cccc(C#CCOCCN3CCC4(CC3)CC(n3cc(NC(=O)c5cnn6ccc(N7C[C@H]8C[C@@H]7CO8)nc56)c(C(F)F)n3)C4)c21` (stereo partly drawn) [Example 1], the DC50 in test [1] (setting [3]) was found to be 1.4 nM; in test [2] (OCI-LY3 cells) it was 0.4 nM.
Regarding `Cn1c(=O)n(C2CCC(=O)NC2=O)c2cccc(C#CCOCCCN3CCC4(CC3)CC(n3cc(NC(=O)c5cnn6ccc(N7C[C@H]8C[C@@H]7CO8)nc56)c(C(F)F)n3)C4)c21` (stereo partly drawn) [Example 2], the DC50 in test [1] (read-out: SU-DHL-2 DC50) is 1.1 nM; in test [2], 0.4 nM.
The corresponding values for `Cn1c(=O)n(C2CCC(=O)NC2=O)c2cccc(C#CCN3CCC(CN4CCC5(CC4)CC(n4cc(NC(=O)c6cnn7ccc(N8C[C@H]9C[C@@H]8CO9)nc67)c(C(F)F)n4)C5)CC3)c21` (stereo partly drawn) [Example 3] are 11 nM and 8 nM.
As for `Cn1c(=O)n(C2CCC(=O)NC2=O)c2cccc(C#CCOCCCCN3CCC4(CC3)CC(n3cc(NC(=O)c5cnn6ccc(N7C[C@H]8C[C@@H]7CO8)nc56)c(C(F)F)n3)C4)c21` (stereo partly drawn) [Example 4], the DC50 in test [1] (read-out: SU-DHL-2 DC50) was 8 nM; in test [2] it was 5 nM.
`Cn1c(=O)n(C2CCC(=O)NC2=O)c2cccc(C#CCOCC(C)(C)C(=O)N3CCC4(CC3)CC(n3cc(NC(=O)c5cnn6ccc(N7C[C@H]8C[C@@H]7CO8)nc56)c(C(F)F)n3)C4)c21` (stereo partly drawn) [Example 5]: the DC50 in test [1] (setting [4]) stood at 27 nM; in test [2] (OCI-LY3 cells), 28 nM.
The corresponding values for `Cn1c(=O)n(C2CCC(=O)NC2=O)c2cccc(C#CCOCC3(C(=O)N4CCC5(CC4)CC(n4cc(NC(=O)c6cnn7ccc(N8C[C@H]9C[C@@H]8CO9)nc67)c(C(F)F)n4)C5)CC3)c21` (stereo partly drawn) [Example 7] are 12 nM and 10 nM.
`Cn1c(=O)n(C2CCC(=O)NC2=O)c2cccc(C#CCOCCC(=O)N3CCC4(CC3)CC(n3cc(NC(=O)c5cnn6ccc(N7C[C@H]8C[C@@H]7CO8)nc56)c(C(F)F)n3)C4)c21` (stereo partly drawn) [Example 8]: the DC50 turned out to be 4 nM in test [1] (setting [4]) and 2 nM in test [2] (OCI-LY3 cells).
For `Cn1c(=O)n(C2CCC(=O)NC2=O)c2cccc(C#CCOCC3CC(N4CCC5(CC4)CC(n4cc(NC(=O)c6cnn7ccc(N8C[C@H]9C[C@@H]8CO9)nc67)c(C(F)F)n4)C5)C3)c21` (stereo partly drawn) [Example 9], the DC50 in test [1] (setting [3]) stood at 2.7 nM; in test [2] (OCI-LY3 cells), 2.3 nM.
Consider `Cn1c(=O)n(C2CCC(=O)NC2=O)c2cccc(C#CCOC(C)(C)C(=O)N3CCC4(CC3)CC(n3cc(NC(=O)c5cnn6ccc(N7C[C@H]8C[C@@H]7CO8)nc56)c(C(F)F)n3)C4)c21` (stereo partly drawn) [Example 10], for which the results for the DC50 in test [1] (setting [4]) and in test [2] (OCI-LY3 cells) were 17 nM and 13 nM, respectively.
`Cn1c(=O)n(C2CCC(=O)NC2=O)c2cccc(C#CCOCC(=O)N3CCC4(CC3)CC(n3cc(NC(=O)c5cnn6ccc(N7C[C@H]8C[C@@H]7CO8)nc56)c(C(F)F)n3)C4)c21` (stereo partly drawn) [Example 12]: the DC50 in test [1] (setting [4]) and in test [2] (OCI-LY3 cells) was 5 nM in each case.
Regarding `Cn1c(=O)n(C2CCC(=O)NC2=O)c2cccc(C#CCCCCN3CCC4(CC3)CC(n3cc(NC(=O)c5cnn6ccc(N7C[C@H]8C[C@@H]7CO8)nc56)c(C(F)F)n3)C4)c21` (stereo partly drawn) [Example 15], the DC50 in test [1] (setting [3]) amounted to 5 nM; in test [2] (OCI-LY3 cells) it was 1.5 nM.
On the same counts, the results for `Cn1c(=O)n(C2CCC(=O)NC2=O)c2cccc(C#CCCCN3CCC4(CC3)CC(n3cc(NC(=O)c5cnn6ccc(N7C[C@H]8C[C@@H]7CO8)nc56)c(C(F)F)n3)C4)c21` (stereo partly drawn) [Example 17] are 1 nM and 1 nM.
With `Cn1c(=O)n(C2CCC(=O)NC2=O)c2cccc(C#CCCC(=O)N3CCC4(CC3)CC(n3cc(NC(=O)c5cnn6ccc(N7C[C@H]8C[C@@H]7CO8)nc56)c(C(F)F)n3)C4)c21` (stereo partly drawn) [Example 24], the figures for the DC50 in test [1] (setting [3]) and in test [2] (OCI-LY3 cells) were 4 nM and 3 nM, respectively.
`Cn1c(=O)n(C2CCC(=O)NC2=O)c2cccc(C#CCO[C@H]3C[C@H](CN4CCC5(CC4)CC(n4cc(NC(=O)c6cnn7ccc(N8C[C@H]9C[C@@H]8CO9)nc67)c(C(F)F)n4)C5)C3)c21` (stereo partly drawn) [Example 29]: the DC50 in test [1] (setting [4]) is 3 nM; in test [2] (OCI-LY3 cells), 1 nM.
Regarding `Cn1c(=O)n(C2CCC(=O)NC2=O)c2cccc(C#CCO[C@H]3C[C@@H](CN4CCC5(CC4)CC(n4cc(NC(=O)c6cnn7ccc(N8C[C@H]9C[C@@H]8CO9)nc67)c(C(F)F)n4)C5)C3)c21` (stereo partly drawn) [Example 30], the DC50 in test [1] (setting [4]) turned out to be 3 nM; in test [2] (OCI-LY3 cells) it was 1 nM.
`Cn1c(=O)n(C2CCC(=O)NC2=O)c2cccc(C#CCOc3ccc(CN4CCC5(CC4)CC(n4cc(NC(=O)c6cnn7ccc(N8C[C@H]9C[C@@H]8CO9)nc67)c(C(F)F)n4)C5)cc3)c21` (stereo partly drawn) [Example 57]: in test [1] (read-out: SU-DHL-2 DC50), the DC50 worked out at 22 nM.
The same measure, in the same setting: under `Cn1c(=O)n(C2CCC(=O)NC2=O)c2cccc(C#CCN3CC(C(=O)N4CCC5(CC4)CC(n4cc(NC(=O)c6cnn7ccc(N8C[C@H]9C[C@@H]8CO9)nc67)c(C(F)F)n4)C5)C3)c21` (stereo partly drawn) [Example 58] stands 5 nM; under `Cn1c(=O)n(C2CCC(=O)NC2=O)c2cccc(C#CCN3CC[C@H](C(=O)N4CCC5(CC4)CC(n4cc(NC(=O)c6cnn7ccc(N8C[C@H]9C[C@@H]8CO9)nc67)c(C(F)F)n4)C5)C3)c21` (stereo partly drawn) [Example 59], 3 nM.
As to `Cn1c(=O)n(C2CCC(=O)NC2=O)c2cccc(C#CCOC3CCN(CC4CCC5(CC4)CC(n4cc(NC(=O)c6cnn7ccc(N8C[C@H]9C[C@@H]8CO9)nc67)c(C(F)F)n4)C5)CC3)c21` (stereo partly drawn) [Example 61], the DC50 in test [1] (read-out: SU-DHL-2 DC50) is 4 nM.
On the same count and under the same terms, under `Cn1c(=O)n(C2CCC(=O)NC2=O)c2cccc(C#CCN3CCC(CN4CCC5(CC4)CC(n4cc(NC(=O)c6cnn7ccc(N8C[C@H]9C[C@@H]8CO9)nc67)c(C(F)F)n4)C5)CC3=O)c21` (stereo partly drawn) [Example 62] stands 1.2 nM; under `COc1cc2nn(C3CCC4(CC3)CCN(C3CC(OCC#Cc5cccc6c5n(C)c(=O)n6C5CCC(=O)NC5=O)C3)CC4)cc2cc1C(=O)Nc1cnc2cccnn12` (stereo not drawn) [Example 64], 1 nM.
`COc1cc2nn(C3CC4(CCN(CC5CC(OCC#Cc6cccc7c6n(C)c(=O)n7C6CCC(=O)NC6=O)C5)CC4)C3)cc2cc1C(=O)Nc1cnc2cccnn12` (stereo not drawn) [Example 65]: the DC50 in test [1] (read-out: SU-DHL-2 DC50) was 2.8 nM.
As for `COc1cc2nn(C3CCC4(CC3)CCN(CC3CCN(c5ccc6c(c5)C(=O)N(C5CCC(=O)NC5=O)C6=O)CC3)CC4)cc2cc1NC(=O)c1cnc2cccnn12` (stereo not drawn) [Example 67], the DC50 in test [1] (read-out: SU-DHL-2 DC50) turned out to be 45 nM.
The same measure, in the same setting: under `Cn1c(=O)n(C2CCC(=O)NC2=O)c2cccc(C#CCOC3CCN(CC4CCC5(CC4)CCC(n4cc(NC(=O)c6cnn7ccc(N8C[C@H]9C[C@@H]8CO9)nc67)c(C(F)F)n4)CC5)CC3)c21` (stereo partly drawn) [Example 68] stands 24 nM; under `Cn1c(=O)n(C2CCC(=O)NC2=O)c2cccc(C#CC(C)(C)C(=O)N3CCC4(CC3)CC(n3cc(NC(=O)c5cnn6ccc(N7C[C@H]8C[C@@H]7CO8)nc56)c(C(F)F)n3)C4)c21` (stereo partly drawn) [Example 70], 16 nM.
Turning to `Cn1c(=O)n(C2CCC(=O)NC2=O)c2cccc(C#CCO[C@H]3CC[C@H](C(=O)N4CCC5(CC4)CC(n4cc(NC(=O)c6cnn7ccc(N8C[C@H]9C[C@@H]8CO9)nc67)c(C(F)F)n4)C5)CC3)c21` (stereo partly drawn) [Example 71], the DC50 in test [1] (read-out: SU-DHL-2 DC50) worked out at 5 nM.
Same read-out and setting: under `Cn1c(=O)n(C2CCC(=O)NC2=O)c2cccc(C#CCO[C@H]3CC[C@@H](C(=O)N4CCC5(CC4)CC(n4cc(NC(=O)c6cnn7ccc(N8C[C@H]9C[C@@H]8CO9)nc67)c(C(F)F)n4)C5)CC3)c21` (stereo partly drawn) [Example 72] stands 4 nM.
